Measured values published in US20220411448A1, “CHROMENE-4-ONE DERIVATIVES AS BRAIN-DERIVED NEUROTROPHIC FACTOR (BDNF) MIMETICS” (FLORATEK PHARMA AG, priority 2019, published 2022).

Key:
[1] = Metabolic stability in human intestine microsomes; assay type: in vitro ADME; conditions: both sexes, pooled intestine microsomes, pH 7.4, intestinal microsomes, 0.5 mg/ml protein, read-out: T1/2 IM human
Description: (§1) Sample type: pooled liver or intestine microsomes; Species: CD1-mouse (male), human (mixed gender) Time points: 0, 10, 20, 40, 60 min cofactors, and negative control;
(§2) Protein content: 0.5 mg/ml: Replicates: 2 with cofactors, 1 without cofactors; Cofactors: NADPH (1 mM)+UDPGA (1 mM)+15 μg/ml alamethicin Buffer: 0.1 M phosphate buffer pH 7.4, 2 mM MgCl2; Spiking solvent: 50% DMSO ( 1/100 to incubation); Quenching solvent: 2-fold volume of 75% ACN, Control: midazolam disappearance rate
(§3) The study compounds were incubated with liver or intestine microsomes as specified above. The collected samples were stored at −20 C until thawed at room temperature, centrifuged and analyzed as presented below.
(§4) The samples were analysed by UPLC/HR-MS (with data dependent MS/MS mode) to monitor substrate depletion (and later optionally metabolite formation). The analytical method was optimised by using the parent compound for optimum chromatographic properties (peak shape and retention) and mass spectrometric ionisation. Disappearance rate of the study compound was estimated based on relative LC/MS peak areas (o min marked as 100%), and was used to calculate in vitro half-life and clearance (and in vivo extrapolation of hepatic clearance).

[2] = Metabolic stability in mouse intestine microsomes; assay type: in vitro ADME; conditions: male, CD1, mouse, pooled intestine microsomes, pH 7.4, intestinal microsomes, 0.5 mg/ml protein, read-out: T1/2 IM mouse
Description: as §1, §2, §3, §4

[3] = tested on: primary cultures of cortical neurons; assay: Primary neuronal culture viability (MTT assay); assay type: cell-based, mouse; conditions: primary neuron culture, 24 hours
Description: For neuronal cultures, primary cultures of cortical neurons were prepared from embryonic day 17 (E17) OF1 mice embryos (Charles River Laboratories) as previously described [Allaman I., Pellerin L., Magistretti P. J. (2004) Glucocorticoids modulate neurotransmitter-induced glycogen metabolism in cultured cortical astrocytes. J. Neurochem. 88, 900-908] or from C57BL/6JRccHsd mice at E18. Animals were sacrificed and embryos were dissected in Calcium and Magnesium free Hanks Balanced Salt Solution (CMF-HBSS) containing 15 mM HEPES and 10 mM NaHCO3, pH 7.2. Embryos were decapitated, skin and skull gently removed and hemispheres were separated. […]
The MTT assay was conducted according to manufacturer's instructions (Invitrogen/Molecular Probes, Eugene, Oreg.) and was measured using a plate reader at an absorbance wavelength of 570 nm. Cell survival rate was expressed either as the absorbance values or as optical density (OD), with values calculated as % of controls.
Primary neuronal culture viability in the presence of Compound A/SND118 Primary neuron culture was prepared as described and treated with Compound A/SND118 at various concentrations for 24 hours. Cellular viability was measured using MTT assay as described.

half-life at 1 μM [1]: 30.8 min
half-life at 1 μM [2]: 27.6 min
SMILES: O=c1cc(-c2ccc(CCCC[P+](c3ccccc3)(c3ccccc3)c3ccccc3)cc2)oc2c(O)c(O)ccc12 [SND118, 4-[4-(7,8-dihydroxy-4-oxo-chromen-2-yl)phenyl]butyltriphenylphosphonium bromide]
Cellular viability (MTT): concentration up to which not toxic [3]: ≤ 10 µM
